{
  "source": "patent US20230323410A1",
  "about": "“BACTERIAL CELLS AND METHODS FOR PRODUCTION OF 2-FLUORO-CIS,CIS-MUCONATE” (priority 2020, published 2023)",
  "molecules": {"B1": {"name": "PEM7: constitutive promoter, SEQ ID NO: 59 (nucleic acid)", "DNA": "TTGTTGACAATTAATCATCGGCATAGTATATCGGCATAGTATAATACGACAAGGTGAGGAACTAAACC", "modifications": "expressed or natural sequence"}},
  "key": {"P. putida KT2440 [1]": {"test_system": "P. putida KT2440", "experiment": "Shaken flask fermentation with 10 mM 2-FBz or 3-FBz", "type": "cell-based, Pseudomonas putida"}, "P. knackmussii": {"test_system": "P. knackmussii", "experiment": "Shaken flask fermentation with 10 mM 2-FBz or 3-FBz", "type": "cell-based, Pseudomonas knackmussii", "parameters": "rate qp: unit not given here", "settings": "for product formation rate qp: from 2-FBz; for rate qp: from 3-FBz"}, "CatR/Pcat": {"test_system": "CatR/Pcat", "type": "cell-based, P. putida KT2440", "settings": "1.0 mM"}, "P. putida KT2440 [2]": {"test_system": "P. putida KT2440", "settings": "30 mM glucose; for Maximum growth rate μmax: Example 6 (improved method)"}, "Pmuc10": {"test_system": "Pmuc10", "experiment": "Microtiter plate cultivation: growth with metabolites of the bioconversion", "settings": "Example 6 (improved method), 30 mM glucose"}, "[3]": {"test_system": "msfGFP reporter gene under control of BCD10", "type": "cell-based, P. putida KT2440", "settings": "5 mM 3-FBz (inducible systems), 30 mM glucose, FIG. 6"}},
  "note": "Where two headings read alike, the source gives them in different places.",
  "data": [
    {"molecule": "O=C(O)/C=C\\C=C(\\F)C(=O)O", "note": "[Strain 2-FMA, 2-fluoro-cis,cis-muconate]", "values": [
      {"measurement": "combined product formation rate qp", "setting": "P. putida KT2440 [1]; 10 mM 3-FBz", "value": 0.06, "unit": "mmol gCDW^−1 h^−1"},
      {"measurement": "product formation rate qp", "setting": "P. putida KT2440 [1]; from 10 mM 2-FBz", "value": 0.06, "unit": "mmol gCDW^−1 h^−1"},
      {"measurement": "product formation rate qp", "setting": "P. knackmussii; Example 1", "value": 0.05, "unit": "mmol gCDW^−1 h^−1"},
      {"measurement": "product formation rate qp", "setting": "P. knackmussii; Example 6", "value": 0.03, "unit": "mmol gCDW^−1 h^−1"},
      {"measurement": "rate qp", "setting": "P. knackmussii; Example 1", "value": 0.05},
      {"measurement": "rate qp", "setting": "P. knackmussii; Example 6", "value": 0.09},
      {"measurement": "response to 1.0 mM as compared to 1.0 mM ccMA", "setting": "CatR/Pcat", "value": 6.7, "unit": "fold"},
      {"measurement": "reduction of growth rate and maximum biomass concentration", "setting": "P. putida KT2440 [2]; 15 mM, FIG. 14", "value": 50, "unit": "%"},
      {"measurement": "concentration up to which the growth profile was similar to cultures with glucose only", "setting": "P. putida KT2440 [2]; FIG. 14", "value": "up to 10 mM"},
      {"measurement": "Maximum growth rate μmax", "setting": "P. putida KT2440 [2]; 1.0 mM additive", "value": 0.86, "unit": "h⁻¹"},
      {"measurement": "Maximum growth rate μmax", "setting": "P. putida KT2440 [2]; 2.0 mM additive", "value": 1.00, "unit": "h⁻¹"},
      {"measurement": "Maximum growth rate μmax", "setting": "P. putida KT2440 [2]; 5.0 mM additive", "value": 0.86, "unit": "h⁻¹"},
      {"measurement": "Maximum growth rate μmax", "setting": "P. putida KT2440 [2]; 10 mM additive", "value": 0.80, "unit": "h⁻¹"},
      {"measurement": "Maximum growth rate μmax", "setting": "P. putida KT2440 [2]; 15 mM additive", "value": 0.66, "unit": "h⁻¹"},
      {"measurement": "Maximum growth rate μmax", "setting": "P. putida KT2440 [2]; 20 mM additive", "value": "no growth"},
      {"measurement": "Maximum growth rate μmax", "setting": "Pmuc10; 1 mM additive", "value": 1.24, "unit": "h⁻¹"},
      {"measurement": "Maximum growth rate μmax", "setting": "Pmuc10; 2.0 mM additive", "value": 1.20, "unit": "h⁻¹"},
      {"measurement": "Maximum growth rate μmax", "setting": "Pmuc10; 5 mM additive", "value": 1.08, "unit": "h⁻¹"},
      {"measurement": "Maximum growth rate μmax", "setting": "Pmuc10; 10 mM additive", "value": 0.98, "unit": "h⁻¹"},
      {"measurement": "Maximum growth rate μmax", "setting": "Pmuc10; 15 mM additive", "value": 0.47, "unit": "h⁻¹"},
      {"measurement": "Maximum growth rate μmax", "setting": "Pmuc10; 20 mM additive", "value": "no growth"}
    ]},
    {"molecule": "P14g: constitutive promoter, SEQ ID NO: 50 (DNA GCCCATTGACAAGGCTCTCGCGGCCAGGTATAATTGCACGA; expressed or natural sequence) [Strain P14g, reference compound]", "values": [
      {"measurement": "transcription initiation rate: quotient of OD630 nm-normalized fluorescence with the one of Ptac", "setting": "[3]", "value": 2.51}
    ]},
    {"molecule": "B1", "values": [
      {"measurement": "transcription initiation rate: quotient of OD630 nm-normalized fluorescence with the one of Ptac", "setting": "[3]", "value": 0.57}
    ]}
  ]
}
